Reference: US20240382521A1, “METHODS OF ENGINEERING IMMUNE CELLS HAVING REDUCED FRATRICIDAL ACTIVITY” (Baylor College of Medicine, priority 2021, published 2024)

Columns and labels:
[1] = system: CYP3A; conditions: cited from earlier work
[2] = system: CD5 CAR T-cells; test: Expansion of CD5 CAR T-cells in the presence of kinase inhibitors; type: cell-based, human; conditions: for frequencies of minimally differentiated, naïve-like T-cells (differentiation of CD5 CAR T-cells): inhibitor added on day of viral transduction, replenished every 2-3 days, vs control CD5 CAR T-cells expanded in the absence of inhibitors, FIG. 1A
From the text: Pazopanib and gefitinib had less impact on the differentiation of CD5 CAR T-cells. […] No such effect was observed upon expansion of control non-transduced T-cells in the presence of the same inhibitors, indicating the effect is CAR-specific.

| SMILES | metabolism in the liver by the CYP3A [1] | frequencies of minimally differentiated, naïve-like T-cells (differentiation of CD5 CAR T-cells) [2] | CD5 CAR T-cell expansion ([2]; in presence of inhibitor, compared with non-transduced control T-cells, FIG. 1B) |
| --- | --- | --- | --- |
| Cc1nc(Nc2ncc(C(=O)Nc3c(C)cccc3Cl)s2)cc(N2CCN(CCO)CC2)n1 [dasatinib] | extensive metabolism |  |  |
| COc1cc2ncnc(Nc3ccc(F)c(Cl)c3)c2cc1OCCCN1CCOCC1 [gefitinib] |  | less impact |  |
| CC(C)(C)n1nc(-c2ccc(Cl)cc2)c2c(N)ncnc21 [pp2] |  | higher frequencies | promoted robust CD5 CAR T-cell expansion |
